According to US20140271667A1, “Methods and Compositions for Neoadjuvant Therapy” (The Wistar Institute of Anatomy and Biology, priority 2013, published 2014):
“Also recorded” adds a separate entry of the source.

Experiments:
PC3 cells [1] = test: Transwell cell migration; type: cell-based, human; conditions: Gamitrinib 5 μM, 17-AAG 5 μM, CCCP 12.5 μM, 2-DG 25 mM, rapamycin 0.1 μM, 6 h
Experimental: (§1) Various tumor cell types were treated as indicated in each experiment, suspended in 0.1% BSA/DMEM and seeded (1.6−3.2×10^3 cells/mm2, depending on the cell type) in the upper compartment of […] pore diameter BD transwells (BD). NIH3T3 conditioned medium was placed in the lower compartment as a chemoattractant. After 6-18 h incubations at 37° C., the transwell membranes were recovered and cells on the upper side (non-migratory) were wiped off the surface. Cells on the lower side of the membrane were fixed in methanol, rinsed in water and mounted on glass slides with Vectashield medium containing DAPI (Vector Laboratories). Migrated cells on each membrane were counted by fluorescence microscopy in 5 different fields. For cell invasion assays, transwell membranes were coated with Matrigel and processed as described above.

PC3 cells [2] = test: Matrigel-coated transwell cell invasion; type: cell-based, human; conditions: Gamitrinib 5 μM, 17-AAG 5 μM, CCCP 12.5 μM, 2-DG 25 mM, 16 h
Experimental: as §1

LN229 spheroids [3] = test: Tumor cell invasion in 3D organotypic spheroids embedded in collagen; type: cell-based, human; conditions: LN229 spheroids in collagen matrix; Gamitrinib 1.25-2.5 μM; 72 h
Experimental: (§2) For cell migration experiments using a wound closure assay, confluent monolayers of MRC-5 cells were incubated with vehicle or Gamitrinib (5-10 μM), and wounded using a 10 μl pipette tip. Three micrographs/well were obtained at time=0, 16 and 24 h after wounding, and the percentage of wound closure was normalized to the maximum initial area for each well. For analysis of tumor cell invasion in 3D organotypic spheroids, tumor cells (5×10^4) were seeded onto 96-well plates coated with 1.5% agar (Difco Noble Agar) in PBS, pH 7.4. Spheroids were allowed to form over a 72 h period and then embedded in […] of bovine collagen type I (Organogenesis) in 24-well plates. Spheroids were overlaid with 1 ml of growth medium, treated with various concentrations of Gamitrinib for 72 h, and analyzed for changes in maximum invasion distance and invasion area. Quantification of live vs. dead cells under the various conditions tested was performed by staining the spheroids with calcein-AM (live, bright cluster) and Topro-3 (dead, dark spots) (Invitrogen) for 2 h. Samples were imaged using a Prairie Ultima II 2-photon microscope (Prairie Technologies, Inc, Middleton, Wis.), and stacks of 100 slices were generated in 2 channels. 3-D reconstruction of the labeled spheroids and analysis of cell staining was carried out using ImagePro Plus 3D software (Media Cybernetics, Silver Spring Md.).

PC3 cells [4] = test: Cell proliferation by direct cell counting; type: cell-based, human; conditions: vs vehicle, Gamitrinib 5 μM, CCCP 12.5 μM, 2-DG 25 mM
Experimental: (§3) Tumor cells were plated onto 96-well plates at 3.7×10^3/well and treated with vehicle or Gamitrinib (5 μM). After 24 h, cell viability was assessed with a 3 (4,5-dimethyl-thyazoyl-2-yl)2,5 diphenyltetrazolium bromide (MTT) colorimetric assay (24), or, alternatively, by Trypan blue exclusion and light microscopy. Data were background-subtracted relative to vehicle-treated cultures. In some experiments, tumor cell proliferation was assessed by direct cell counting and light microscopy.

LN229 spheroids [5] = test: Spheroid live/dead staining (calcein-AM/Topro-3), 2-photon microscopy; type: cell-based, human
Experimental: as §2

[6] = tested on: normal human MRC-5 lung fibroblasts; test: Wound closure assay, normal fibroblasts; type: cell-based; conditions: Gamitrinib 5-10 μM, 16 or 24 h
Experimental: as §2

tumor cells = test: F-actin staining (rhodamine-phalloidin), confocal microscopy; type: cell-based, human; conditions: Gamitrinib 5 μM; fluorescence microscopy
Experimental: Tumor cells growing at low confluency (1-2×10^4/well) on optical grade glass coverslips were treated with vehicle or Gamitrinib (5 μM), fixed in 4% formaldehyde for 15 min at 37° C., washed in PBS, pH 7.4, and permeabilized with 0.1% Triton X-100 for 5 min at 22° C. Slides were washed in PBS, pH 7.4, blocked in 1% BSA/PBS for 30 min, incubated with 1:2000 dilution of phalloidin-rhodamine (Molecular Probes) for 30 min, washed in PBS, pH 7.4, and mounted in Fluoromount G medium (Southern Biotech). Slides were analyzed on a Leica TCS SP2 confocal laser microscope with a 100× oil objective.

PC3 cells [7] = test: Cell death by Trypan blue exclusion; type: cell-based; conditions: vs vehicle, Gamitrinib 5 μM, CCCP 12.5 μM, 2-DG 25 mM
Experimental: as §3

LN229 cells = test: Galactose challenge cell viability; type: cell-based, human; conditions: Gamitrinib 5 μM
Experimental: Human glioblastoma LN229, prostate adenocarcinoma PC3 and PC3-ML subline, lung adenocarcinoma H1299, H1437, H460 and A549, breast adenocarcinoma MDA-MB-231, melanoma 1205Lu and WM793, or normal NIH3T3 and MRC-5 fibroblasts were obtained from the American Tissue Culture Collection (ATCC), and maintained in culture according to the supplier's specifications. For metabolic stress experiments, cells were incubated in MEM-based media containing glucose, essential and non-essential amino acids and vitamins in identical concentration as DMEM, plus 4 mM L-glutamine, 1 mM sodium pyruvate, 10 mM HEPES, and 10% 10 K dialyzed FBS (Gibco). Three conditions were tested: 25 mM glucose (complete medium), 5 mM glucose or 50% amino acid deprivation compared to DMEM. […]
as §3, with “Data were background-subtracted relative to vehicle-treated cultures.” left out

ULK1 = test: Western blotting, ULK1 phosphorylation and level; type: cell-based, human; conditions: PC3
Experimental: Protein lysates were prepared in RIPA buffer containing 150 mM NaCl, 1.0% Triton X-100, 0.5% sodium deoxycholate, 0.1% SDS, 50 mM Tris, pH 8.0, in the presence of EDTA-free protease inhibitor cocktail (Roche) and phosphatase inhibitor cocktail 2 and 3 (Sigma Aldrich). Equal amounts of protein lysates were separated by SDS gel electrophoresis, transferred to PVDF membranes and incubated with primary antibodies of various specificities. Protein bands were detected by chemiluminescence, as described (21).

FIP200 = FIP200 phosphoisotypes, phosphate-affinity SDS gel mobility shift; type: cell-based, human; conditions: PC3; Gamitrinib 5 μM
Experimental: Analysis of phosphoisotypes was carried out by standard phosphate-affinity SDS gel electrophoresis, using a mobility shift protocol (56). Briefly, proteins were separated by electrophoresis on 3% polyacrylamide/0.5% SeaKem Gold Agarose (Lonza) gels containing the dinuclear metal complex Mn2+-Phos-tag (Acrylamide-pendant Phos-tag, Wako Chemicals). After removal of Mn2+ by washing the gels in blotting buffer containing 1 mM EDTA, proteins were transferred to PVDF membranes and detected by Western blotting using antibodies to FIP200 or pan-phosphorylated Ser residues.

## Gamitrinib
PC3 cells [1]
  tumor cell migration: suppressed
PC3 cells [2]
  tumor cell invasion: suppressed
LN229 spheroids [3]
  invasive length and invasive areas: nearly complete suppression
  tumor cell invasion in organotypic spheroids: blocked tumor cell invasion
PC3 cells [4]
  tumor cell proliferation: did not reduce tumor cell proliferation; also recorded: did not affect cell proliferation
LN229 spheroids [5]
  overall cell viability in a 3-D microenvironment: not affected
[6]
  migration of normal human fibroblasts in wound closure assay: did not affect migration
Tumor cells
  actin cytoskeletal assembly: suppressed actin cytoskeletal assembly
PC3 cells [7]
  cell death by Trypan blue exclusion: did not affect
LN229 cells; 0% Glc-100% Gal
  tumor cell viability in 100% galactose: nearly complete tumor cell death
LN229 cells; 100% glucose or 50% Glc-50% Gal
  tumor cell viability in glucose or 50% galactose: did not significantly reduce tumor cell viability
ULK1; Gamitrinib 5 μM (within 1-2 h), metformin 5 mM 6 h, 17-AAG 5 μM
  ULK1 phosphorylation on Ser555: phosphorylation of ULK1 on Ser555
ULK1; Gamitrinib 5 μM, metformin 5 mM 6 h, 17-AAG 5 μM
  ULK1 phosphorylation on Ser757: decreased phosphorylation on Ser757
ULK1; time points of the Western blot experiment
  total level of ULK1: not affected
FIP200
  FIP200 gel mobility (phosphorylation): gel mobility retardation, suggestive of increased phosphorylation
